Measured values published in PubChem BioAssay AID256 (DTP/NCI, 2004).
Toxic doses and inconclusive results are not listed.

Test system: CD2F1 mice, L1210 leukemia ip, survival T/C
Test: NCI In Vivo Anticancer Drug Screen. Data for tumor model L1210 Leukemia (intraperitoneal) in CD2F1 (CDF1) mice
Conditions: endpoint: mean survival time, higher = longer survival
Outline: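 Each value reflects a quotient of treated over vehicle control outcomes in mice with a transplanted tumor.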

CCCCCCCCCCCCCCCC(=O)OCC1OC(n2ccc(N)nc2=O)C(O)C1O (stereo unspecified)
T/C (dose: 6.25 mg/kg/injection, schedule: Q01DX008 (ip), vehicle: saline): 320 % of control
T/C (dose: 12.5 mg/kg/injection, schedule: Q01DX008 (ip), vehicle: saline): 377 % of control
T/C (dose: 16.0 mg/kg/injection, schedule: Q01DX008 (oral), vehicle: saline): 117 % of control
T/C (dose: 16.0 mg/kg/injection, schedule: Q03HX024 (oral), vehicle: saline with Tween-80): 202 % of control
T/C (dose: 20.0 mg/kg/injection, schedule: Q01DX009 (ip), vehicle: saline with Tween-80): 479 % of control
T/C (dose: 25.0 mg/kg/injection, schedule: Q01DX001 (ip), vehicle: saline with Tween-80): 150 % of control
T/C (dose: 25.0 mg/kg/injection, schedule: Q01DX008 (ip), vehicle: saline): 491 % of control
T/C (dose: 25.0 mg/kg/injection, schedule: Q01DX009 (ip), vehicle: saline with Tween-80): 484 % of control
T/C (dose: 30.0 mg/kg/injection, schedule: Q01DX009 (ip), vehicle: saline with Tween-80): 184 % of control
T/C (dose: 32.0 mg/kg/injection, schedule: Q03HX024 (oral), vehicle: saline with Tween-80): 235 % of control
T/C (dose: 50.0 mg/kg/injection, schedule: Q01DX001 (ip), vehicle: saline with Tween-80): 192 % of control
T/C (dose: 50.0 mg/kg/injection, schedule: Q01DX008 (ip), vehicle: saline): 285 % of control
T/C (dose: 64.0 mg/kg/injection, schedule: Q03HX024 (oral), vehicle: saline with Tween-80): 265 % of control
T/C (dose: 100.0 mg/kg/injection, schedule: Q01DX001 (ip), vehicle: saline with Tween-80): 312 % of control
T/C (dose: 125.0 mg/kg/injection, schedule: Q01DX001 (ip), vehicle: saline with Tween-80): 580 % of control
T/C (dose: 128.0 mg/kg/injection, schedule: Q01DX001 (oral), vehicle: saline with Tween-80): 102 % of control
T/C (dose: 128.0 mg/kg/injection, schedule: Q01DX008 (oral), vehicle: saline): 151 % of control
T/C (dose: 128.0 mg/kg/injection, schedule: Q03HX024 (oral), vehicle: saline with Tween-80): 295 % of control
T/C (dose: 128.0 mg/kg/injection, schedule: Q04DX003 (oral), vehicle: saline): 119 % of control
T/C (dose: 150.0 mg/kg/injection, schedule: Q01DX001 (ip), vehicle: saline with Tween-80): 608 % of control
T/C (dose: 200.0 mg/kg/injection, schedule: Q01DX001 (ip), vehicle: saline with Tween-80): 612 % of control
T/C (dose: 250.0 mg/kg/injection, schedule: Q01DX001 (ip), vehicle: saline with Tween-80): 214 % of control
T/C (dose: 256.0 mg/kg/injection, schedule: Q01DX001 (oral), vehicle: saline with Tween-80): 101 % of control
T/C (dose: 300.0 mg/kg/injection, schedule: Q01DX001 (ip), vehicle: saline with Tween-80): 83 % of control
T/C (dose: 512.0 mg/kg/injection, schedule: Q01DX001 (oral), vehicle: saline with Tween-80): 108 % of control
T/C (dose: 512.0 mg/kg/injection, schedule: Q01DX009 (oral), vehicle: saline): 169 % of control
T/C (dose: 1024.0 mg/kg/injection, schedule: Q01DX001 (oral), vehicle: saline with Tween-80): 109 % of control
T/C (dose: 1024.0 mg/kg/injection, schedule: Q01DX009 (oral), vehicle: saline): 177 % of control

C=COCCCCCCCCCCCCCCCCCC
T/C (dose: 100.0 mg/kg/injection, schedule: Q04DX003 (ip), vehicle: other): 108 % of control
T/C (dose: 200.0 mg/kg/injection, schedule: Q04DX003 (ip), vehicle: other): 108 % of control
T/C (dose: 400.0 mg/kg/injection, schedule: Q04DX003 (ip), vehicle: other): 98 % of control

C1CCN(CN2CCCCC2)CC1
T/C (dose: 12.5 mg/kg/injection, schedule: Q01DX009 (ip), vehicle: saline): 103 % of control
T/C (dose: 25.0 mg/kg/injection, schedule: Q01DX009 (ip), vehicle: saline): 98 % of control
T/C (dose: 25.0 mg/kg/injection, schedule: Q04DX003 (ip), vehicle: saline): 90 % of control
T/C (dose: 50.0 mg/kg/injection, schedule: Q01DX009 (ip), vehicle: saline): 97 % of control
T/C (dose: 50.0 mg/kg/injection, schedule: Q04DX003 (ip), vehicle: saline): 92 % of control
